Marks after values point to notes of the source that are not given here.

From patent US20090081192A1, “METHODS OF SCREENING FOR COMPOUNDS HAVING ANTI-INFLAMMATORY ACTIVITY” (FIBREX MEDICAL RESEARCH & DEVELOPMENT GMBH, priority 2007, published 2009) come the findings set out here.

Assay type in all cases: cell-based, human
Assay [1] relates to FAK. Kind of assay: Thrombin induced FAK phosphorylation at autophosphorylation site Tyr397 in HUVEC (immunoprecipitation / western blot). The settings on record: substance alone, compound 50 μg/ml, thrombin 1 U/ml. On the procedure:
For measuring the inhibition of thrombin meditated FAK phosphorylation in HUVECs, the cells are incubated under suitable conditions with a suitable amount of thrombin with and without the test compound for various periods of time up to 60 min and lysed afterwards lysates were subjected to SDS-PAGE and western blot analysis with site-specific antibodies directed against FAK phosphorylated tyrosine residues.
HUVEC were incubated with FX06 (50 μg/ml), Thrombin (1 U/ml, Sigma Aldrich) and Thrombin/test compound for indicated time points. After washing with ice cold PBS (GIBCO), cells were scrapped in Tris-lysis buffer (plus 1% Triton X (Bio-Rad), NP40 (Sigma Aldrich) and proteinase and phosphatase inhibitory cocktails (Sigma Aldrich)) from culture flasks and lysed for 20 min on ice. Lysates were heavily vortexed every 5 min. After lysis lysates were centrifuged (15.000 rpm/10 min/4° C.) and supernatants were added to 50 μl sepahrose beads (Sigma Aldrich) preincubated with 1 μg total FAK antibody (BD Transduction Laboratories). Beads were agitated on the wheel for 2 h at 4° C., followed by 3 times washing with ice cold PBS, the addition of 2× sample buffer and incubation at 95° C. for 5 min. The sample buffer was then removed from the beads and applied to western blotting.
10% polyacrylamide gels were run for separating precipitated proteins. Gels were blotted onto PVDF (Bio-Rad) membranes using the hoefer semi dry blotting system. Membranes were then washed with TBS/0.5% TWEEN (TBST), blocked with 1% BSA/TBST for 1 h at RT and then incubated with the p397 FAK antibody (0.2 μg/ml; BD Transduction Laboratories) in 1% BSA/TBST over night at 4° C. For detection, a HRP-labeled goat anti-mouse Ab (1:25 000; Bio-Rad) in TBST was used and bound Abs were visualized by chemiluminescence (ECL-system, Amersham Corp., Arlington Heights, Ill.) and recorded on film.
A general note: Immunoblotting shows a protein as a band on a membrane.

In assay [2] the test system is RhoA. Kind of assay: Thrombin induced RhoA activation pull-down assay in HUVEC. The settings on record: substance alone, thrombin 5 U/ml. The source says:
(§1) The useful methods of analysing the activation status of Rac1 and RhoA are based on the principle of the so-called pull down assay. In this format, the GTP-bound active state of the respective protein in a cell lysate is bound to an immobilized binding partner and detected with a monoclonal antibody (MAb) specifically directed against the protein in question. The amount of the GTP-bound active state can subsequently be quantified through suitable detection methods, including but not limited to Western blotting or luminescence detection.
The lysate is added to a suitably immobilized rhotekin-binding domain (RBD) and the signal measured with an appropriate detection method.
HUVEC are grown to confluence under standard conditions. Before induction of Rho activity HUVEC were starved for 4 h by using IMDM (Gibco) without growth factor and serum supplements. After the starvation period 5 U/ml Thrombin (Calbiochem) or 5 U thrombin plus 50 μg/ml of test compound are added to the starvation medium for 1, 5 and 10 min. Active RhoA was isolated using Rho Assay Reagent from Upstate according to manufactures instructions. Isolates were separated on a 15% polyacrylamid gel and blotted on Nitrocellulose-Membrane (Bio-Rad). RhoA was detected by using Anti-Rho (-A, -B, -C), clone55 from Upstate (1:500).

Assay [3] has as its system Rac1. Kind of assay: Rac1 activation pull-down assay in HUVECs. The settings on record: HUVEC, substance alone, test compound 50 μg/ml.
Source text: as §1
The lysate is added to a suitably immobilized p21-binding domain (PBD) of p21-activated protein kinase (PAK) and the amount of activated Rac1 is quantified with a Rac1-specific MAb.
HUVECs are grown to confluence under standard conditions. Before induction of Rac1 activity HUVECs were starved for 4 h by using IMDM (Gibco) without growth factor and serum supplements. Rac1 activity is induced by adding 50 μg/ml of test compound into starvation medium for 1, 5 and 10 min. Active Rac1 was isolated using Rac1/Cdc42 Assay Reagent from Upstate according to manufactures instructions. Isolates were separated on a 15% polyacrylamid gel and blotted on Nitrocellulose-Membranes (Bio-Rad). Rac1 was detected by using Anti-Rac1 clone23A8, anti-mouse from Upstate (1:250).

In the case of thrombin, the “FAK phosphorylation (p397), relative values compared to unstimulated control” value is 4.5 +/− 0.2* in assay [1] (1 min), 4.5 +/− 0.2* in assay [1] (5 min) and 3.8 +/− 0.1* in assay [1] (10 min). Besides, the “Active RhoA, relative values compared to unstimulated control” value in assay [2] (1 min) was 2.5 +/− 0.2*; in assay [2] (5 min), 2.5 +/− 0.2*; in assay [2] (10 min), 1 +/− 0.2. Further, the “Active Rac1, relative values compared to unstimulated control” value is on record as 0.5 +/− 0.2* in assay [3] (1 min), 0.5 +/− 0.2* in assay [3] (5 min) and 1 +/− 0.1 in assay [3] (10 min).
